Test results: ChEMBL document CHEMBL1201862, “PubChem BioAssay data set” (2004)
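Five compound concentrations were applied to cells in 96-well plates for 48 hours; endpoints were derived by simple linear interpolation of the resulting dose-response curve. Here, GI50 denotes the concentration required for 50% inhibition of growth.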 Calls of active or inactive are those of the source. Rule as the data show it: active = GI50 up to about 1.1 µM and inactive = higher.

Tests used:
Test in all cases: NCI anticancer screen, dose series, 48 h
NCI-H522 = system: NCI-H522
KM12 = system: KM12
OVCAR-8 = system: OVCAR-8
SNB-75 = system: SNB-75
SW-620 = system: SW-620
OVCAR-3 = system: OVCAR-3
U-251 = system: U-251
EKVX = system: EKVX
HCC 2998 = system: HCC 2998
A549 = system: A549
LOX IMVI = system: LOX IMVI
UACC-257 = system: UACC-257
SK-OV-3 = system: SK-OV-3
RXF 393 = system: RXF 393
SK-MEL-5 = system: SK-MEL-5
HT-29 = system: HT-29
SK-MEL-2 = system: SK-MEL-2
HCT-15 = system: HCT-15
BT-549 = system: BT-549

SMILES	GI50 (NCI-H522)	GI50 (KM12)	GI50 (OVCAR-8)	GI50 (SNB-75)	GI50 (SW-620)	GI50 (OVCAR-3)	GI50 (U-251)	GI50 (EKVX)	GI50 (HCC 2998)	GI50 (A549)	GI50 (LOX IMVI)	GI50 (UACC-257)	GI50 (SK-OV-3)	GI50 (RXF 393)	GI50 (SK-MEL-5)	GI50 (HT-29)	GI50 (SK-MEL-2)	GI50 (HCT-15) [µM]	GI50 (BT-549)
CCOC(=O)C(=Cn1c(=S)[nH]c2ccc([N+](=O)[O-])cc21)C(=O)OCC	> 100 µM (inactive)	> 100 µM (inactive)	> 100 µM (inactive)	47.9 µM (inactive)	> 100 µM (inactive)	> 100 µM (inactive)	> 100 µM (inactive)	> 100 µM (inactive)	> 100 µM (inactive)	> 100 µM (inactive)	> 100 µM (inactive)	> 100 µM (inactive)	> 100 µM (inactive)	> 100 µM (inactive)	> 100 µM (inactive)	> 100 µM (inactive)	> 100 µM (inactive)	–	–
CCOC(=O)C1(C/C=C/CBr)CCc2ccccc2C1=O (stereo not given)	12.6 µM (inactive)	15.5 µM (inactive)	15.7 µM (inactive)	10.4 µM (inactive)	14.5 µM (inactive)	–	14.1 µM (inactive)	27.5 µM (inactive)	–	14 µM (inactive)	6.37 µM (inactive)	15.9 µM (inactive)	19 µM (inactive)	6.03 µM (inactive)	12 µM (inactive)	21.9 µM (inactive)	14.1 µM (inactive)	19.7	16.7 µM (inactive)
OC1CCCCCCCCCCC1SCCCCl (stereo not given)	> 100 µM (inactive)	> 100 µM (inactive)	> 100 µM (inactive)	–	> 100 µM (inactive)	> 100 µM (inactive)	> 100 µM (inactive)	> 100 µM (inactive)	> 100 µM (inactive)	> 100 µM (inactive)	> 100 µM (inactive)	> 100 µM (inactive)	> 100 µM (inactive)	> 100 µM (inactive)	> 100 µM (inactive)	> 100 µM (inactive)	> 100 µM (inactive)	> 100	–
COC(=O)C1(O)C(c2ccccc2)NC2(C)CCCC21 (stereo not given)	> 100 µM (inactive)	> 100 µM (inactive)	> 100 µM (inactive)	> 100 µM (inactive)	> 100 µM (inactive)	–	> 100 µM (inactive)	–	–	> 100 µM (inactive)	> 100 µM (inactive)	> 100 µM (inactive)	> 100 µM (inactive)	> 100 µM (inactive)	> 100 µM (inactive)	–	> 100 µM (inactive)	> 100	> 100 µM (inactive)
CCOC(=O)/C(=C\NC(C)(C)C)c1nc2ccccc2o1	29.6 µM (inactive)	33.3 µM (inactive)	39 µM (inactive)	31.9 µM (inactive)	49.7 µM (inactive)	35.4 µM (inactive)	–	> 100 µM (inactive)	–	42.4 µM (inactive)	27.4 µM (inactive)	20.1 µM (inactive)	92 µM (inactive)	24.7 µM (inactive)	12.8 µM (inactive)	27.7 µM (inactive)	–	36.6	26.7 µM (inactive)
CC(C)(C)C1=C(Br)C(Br)(C(C)(C)C)OP1(=O)c1ccccc1 (stereo not given)	> 100 µM (inactive)	> 100 µM (inactive)	> 100 µM (inactive)	> 100 µM (inactive)	> 100 µM (inactive)	> 100 µM (inactive)	> 100 µM (inactive)	> 100 µM (inactive)	> 100 µM (inactive)	> 100 µM (inactive)	> 100 µM (inactive)	> 100 µM (inactive)	> 100 µM (inactive)	> 100 µM (inactive)	> 100 µM (inactive)	> 100 µM (inactive)	> 100 µM (inactive)	> 100	–
O=C(Nc1ccccc1)OCCN=C1c2ccccc2C(Br)C(Br)c2ccccc21 (stereo not given)	5.37 µM (inactive)	13.2 µM (inactive)	4.09 µM (inactive)	13.3 µM (inactive)	4.43 µM (inactive)	6.12 µM (inactive)	8.45 µM (inactive)	10 µM (inactive)	14.8 µM (inactive)	16 µM (inactive)	5.08 µM (inactive)	6.59 µM (inactive)	15.7 µM (inactive)	3.93 µM (inactive)	12.3 µM (inactive)	5.25 µM (inactive)	22.2 µM (inactive)	3.85	–
Cc1ccc(S(=O)(=O)n2c3c(c4ccccc42)CCN2C[C@H]([C@H](C)Br)CC[C@@H]32)cc1	> 100 µM (inactive)	> 100 µM (inactive)	> 100 µM (inactive)	> 100 µM (inactive)	> 100 µM (inactive)	> 100 µM (inactive)	> 100 µM (inactive)	> 100 µM (inactive)	82.8 µM (inactive)	> 100 µM (inactive)	> 100 µM (inactive)	> 100 µM (inactive)	> 100 µM (inactive)	> 100 µM (inactive)	29.2 µM (inactive)	> 100 µM (inactive)	> 100 µM (inactive)	> 100	–
CCNc1nc(N)c(C(=O)c2ccc(Cl)cc2)s1	–	30.3 µM (inactive)	–	–	31.2 µM (inactive)	19.9 µM (inactive)	36.7 µM (inactive)	4.52 µM (inactive)	–	20.7 µM (inactive)	40.1 µM (inactive)	71 µM (inactive)	29.9 µM (inactive)	22 µM (inactive)	27.7 µM (inactive)	27 µM (inactive)	41.7 µM (inactive)	26.9	40.3 µM (inactive)
O=C1CC2(CCCc3sccc32)C(=O)N1 (stereo not given)	> 100 µM (inactive)	> 100 µM (inactive)	> 100 µM (inactive)	> 100 µM (inactive)	> 100 µM (inactive)	> 100 µM (inactive)	> 100 µM (inactive)	> 100 µM (inactive)	> 100 µM (inactive)	> 100 µM (inactive)	> 100 µM (inactive)	> 100 µM (inactive)	> 100 µM (inactive)	> 100 µM (inactive)	> 100 µM (inactive)	> 100 µM (inactive)	> 100 µM (inactive)	> 100	–
N#CCCC(CCC#N)(CCC#N)NO	0.013 µM (active)	> 100 µM (inactive)	> 100 µM (inactive)	73.8 µM (inactive)	> 100 µM (inactive)	–	> 100 µM (inactive)	> 100 µM (inactive)	–	> 100 µM (inactive)	–	> 100 µM (inactive)	> 100 µM (inactive)	> 100 µM (inactive)	> 100 µM (inactive)	> 100 µM (inactive)	> 100 µM (inactive)	> 100	> 100 µM (inactive)
CN1C(=O)C23CCCCC2CC1(c1ccccc1)S3 (stereo not given)	76.2 µM (inactive)	> 100 µM (inactive)	> 100 µM (inactive)	–	> 100 µM (inactive)	50.9 µM (inactive)	77.4 µM (inactive)	> 100 µM (inactive)	–	64.7 µM (inactive)	79.8 µM (inactive)	18.3 µM (inactive)	> 100 µM (inactive)	59.2 µM (inactive)	72.3 µM (inactive)	73.8 µM (inactive)	47.5 µM (inactive)	80	99.3 µM (inactive)
C[C@]12CC/C(=N\O)C=C1CC[C@@H]1[C@@H]2CC[C@]2(C)C(=N/O)/C(=C/c3cccnc3)C[C@@H]12	12.1 µM (inactive)	6.98 µM (inactive)	15.4 µM (inactive)	–	31.8 µM (inactive)	–	22.6 µM (inactive)	18.4 µM (inactive)	–	13.1 µM (inactive)	4.76 µM (inactive)	17.9 µM (inactive)	39.1 µM (inactive)	–	–	19 µM (inactive)	19.8 µM (inactive)	5.9	12.6 µM (inactive)
CC(=O)OC1C(COC(=O)c2ccccc2)OC(Nc2ncc(-c3ccc(Br)cc3)s2)C(OC(=O)c2ccccc2)C1OC(=O)c1ccccc1 (stereo not given)	> 100 µM (inactive)	–	> 100 µM (inactive)	> 100 µM (inactive)	> 100 µM (inactive)	> 100 µM (inactive)	> 100 µM (inactive)	> 100 µM (inactive)	–	> 100 µM (inactive)	> 100 µM (inactive)	> 100 µM (inactive)	> 100 µM (inactive)	> 100 µM (inactive)	> 100 µM (inactive)	> 100 µM (inactive)	14.5 µM (inactive)	> 10	> 100 µM (inactive)
CCSc1[nH]c(NC(=S)NC(=O)c2ccccc2Cl)c(C(N)=O)c1C(N)=O	–	> 10 µM (inactive)	> 10 µM (inactive)	> 10 µM (inactive)	> 10 µM (inactive)	–	–	> 10 µM (inactive)	> 10 µM (inactive)	> 10 µM (inactive)	> 10 µM (inactive)	> 10 µM (inactive)	> 10 µM (inactive)	4.2 µM (inactive)	> 10 µM (inactive)	> 10 µM (inactive)	–	> 10	–
O/N=C1\CSc2ccccc2C1	> 100 µM (inactive)	> 100 µM (inactive)	> 100 µM (inactive)	–	> 100 µM (inactive)	> 100 µM (inactive)	> 100 µM (inactive)	30.6 µM (inactive)	> 100 µM (inactive)	> 100 µM (inactive)	> 100 µM (inactive)	> 100 µM (inactive)	> 100 µM (inactive)	72.3 µM (inactive)	> 100 µM (inactive)	> 100 µM (inactive)	> 100 µM (inactive)	> 100	–
CC1C[C@]2(C)C(=O)N(c3ccccc3)C(=N)[C@@H]2N(C)c2ccccc21 (stereo not given in full)	> 100 µM (inactive)	> 100 µM (inactive)	> 100 µM (inactive)	79.3 µM (inactive)	> 100 µM (inactive)	70.1 µM (inactive)	–	> 100 µM (inactive)	> 100 µM (inactive)	> 100 µM (inactive)	> 100 µM (inactive)	> 100 µM (inactive)	–	> 100 µM (inactive)	> 100 µM (inactive)	> 100 µM (inactive)	> 100 µM (inactive)	> 100	–
